Assay results as given in the supplement of paper PMC10307832.

What was measured:
Experiment in all cases: relative viability (nuclei count vs DMSO), 5 days (fraction); higher = more cells survive
[1] = tested on: NCI-H2170
Summary of the method: (§1)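 After 5 days of treatment, lung cancer cells in 1536-well plates were fixed and stained in a single step (final 0.05% Triton X-100, 1% formaldehyde, 1 ug/ml Hoechst) and their nuclei counted on 4× images. Treatment had been applied by pin tool the day after seeding as one drug alone or as a fixed anchor-drug dose with five library-drug doses (not always all listed) in √10 steps. Relative viability is the nuclei count of treated wells divided by that of vehicle wells, and values are medians of duplicate plates.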

[2] = tested on: NCI-H647
Summary of the method: as §1

[3] = tested on: NCI-H661
Summary of the method: as §1

[4] = tested on: HARA
Summary of the method: as §1

[5] = tested on: NCI-H1395
Summary of the method: as §1

[6] = tested on: NCI-H1437
Summary of the method: as §1

[7] = tested on: NCI-H2405
Summary of the method: as §1

[8] = tested on: EKVX
Summary of the method: as §1

[9] = tested on: NCI-H1792
Summary of the method: as §1

[10] = tested on: HCC-827
Summary of the method: as §1

[11] = tested on: NCI-H1355
Summary of the method: as §1

[12] = tested on: BEN
Summary of the method: as §1

[13] = tested on: NCI-H1993
Summary of the method: as §1

[14] = tested on: NCI-H2087
Summary of the method: as §1

[15] = tested on: SK-LU-1
Summary of the method: as §1

[16] = tested on: LOU-NH91
Summary of the method: as §1

[17] = tested on: NCI-H2342
Summary of the method: as §1

[18] = tested on: SK-MES-1
Summary of the method: as §1

[19] = tested on: NCI-H522
Summary of the method: as §1

[20] = tested on: NCI-H2009
Summary of the method: as §1

[21] = tested on: NCI-H1734
Summary of the method: as §1

For `O=c1cc(N2CCOCC2)oc2c(-c3cccc4c3sc3ccccc34)cccc12` + CCNC(=O)c1noc(-c2cc(C(C)C)c(O)cc2O)c1-c1ccc(CN2CCOCC2)cc1 [Luminespib] (partner 0.01 µM), the relative viability ([1]; first compound 0.01 µM) was 0.445, the relative viability ([1]; first compound 0.03162 µM) was 0.668 and the relative viability ([1]; first compound 0.1 µM) was 0.654. It also gave a relative viability ([1]; first compound 0.3162 µM) of 0.548, a relative viability ([1]; first compound 1 µM) of 0.744 and a relative viability ([2]; first compound 0.01 µM) of 0.132. The relative viability ([2]; first compound 0.03162 µM) was 0.115, the relative viability ([2]; first compound 0.1 µM) was 0.101 and the relative viability ([2]; first compound 0.3162 µM) was 0.259. For the same compound, the relative viability ([2]; first compound 1 µM) was 0.209, the relative viability ([3]; first compound 0.01 µM) was 0.86 and the relative viability ([3]; first compound 0.03162 µM) was 0.952. For the same compound, the relative viability ([3]; first compound 0.1 µM) was 0.948, the relative viability ([3]; first compound 0.3162 µM) was 0.943 and the relative viability ([3]; first compound 1 µM) was 0.888. It also gave a relative viability ([4]; first compound 0.01 µM) of 0.682, a relative viability ([4]; first compound 0.03162 µM) of 0.679 and a relative viability ([4]; first compound 0.1 µM) of 0.806. It also gave a relative viability ([4]; first compound 0.3162 µM) of 0.771, a relative viability ([4]; first compound 1 µM) of 0.905 and a relative viability ([5]; first compound 0.01 µM) of 0.726. The relative viability ([5]; first compound 0.03162 µM) was 0.75, the relative viability ([5]; first compound 0.1 µM) was 0.683 and the relative viability ([5]; first compound 0.3162 µM) was 0.622. The relative viability ([5]; first compound 1 µM) was 0.532, the relative viability ([6]; first compound 0.01 µM) was 0.835 and the relative viability ([6]; first compound 0.03162 µM) was 1.03. It also gave a relative viability ([6]; first compound 0.1 µM) of 1.1, a relative viability ([6]; first compound 0.3162 µM) of 1.08 and a relative viability ([6]; first compound 1 µM) of 1.04. The relative viability ([7]; first compound 0.01 µM) was 0.712, the relative viability ([7]; first compound 0.03162 µM) was 0.571 and the relative viability ([7]; first compound 0.1 µM) was 0.722. It also gave a relative viability ([7]; first compound 0.3162 µM) of 0.717, a relative viability ([7]; first compound 1 µM) of 0.681 and a relative viability ([8]; first compound 0.01 µM) of 0.9. The relative viability ([8]; first compound 0.03162 µM) was 0.872, the relative viability ([8]; first compound 0.1 µM) was 0.878 and the relative viability ([8]; first compound 0.3162 µM) was 0.917. The relative viability ([8]; first compound 1 µM) was 0.891, the relative viability ([9]; first compound 0.01 µM) was 0.502 and the relative viability ([9]; first compound 0.03162 µM) was 0.359. For the same compound, the relative viability ([9]; first compound 0.1 µM) was 0.576, the relative viability ([9]; first compound 0.3162 µM) was 0.497 and the relative viability ([9]; first compound 1 µM) was 0.531. It also gave a relative viability ([10]; first compound 0.01 µM) of 0.642, a relative viability ([10]; first compound 0.03162 µM) of 0.541 and a relative viability ([10]; first compound 0.1 µM) of 0.626. It also gave a relative viability ([10]; first compound 0.3162 µM) of 0.629, a relative viability ([10]; first compound 1 µM) of 0.71 and a relative viability ([11]; first compound 0.01 µM) of 0.815. It also gave a relative viability ([11]; first compound 0.03162 µM) of 0.708, a relative viability ([11]; first compound 0.1 µM) of 0.669 and a relative viability ([11]; first compound 0.3162 µM) of 0.728. The relative viability ([11]; first compound 1 µM) was 0.688, the relative viability ([12]; first compound 0.01 µM) was 0.298 and the relative viability ([12]; first compound 0.03162 µM) was 0.359. For the same compound, the relative viability ([12]; first compound 0.1 µM) was 0.236, the relative viability ([12]; first compound 0.3162 µM) was 0.497 and the relative viability ([12]; first compound 1 µM) was 0.318. The relative viability ([13]; first compound 0.01 µM) was 0.585, the relative viability ([13]; first compound 0.03162 µM) was 0.891 and the relative viability ([13]; first compound 0.1 µM) was 0.984. For the same compound, the relative viability ([13]; first compound 0.3162 µM) was 0.697, the relative viability ([13]; first compound 1 µM) was 0.813 and the relative viability ([14]; first compound 0.01 µM) was 0.148. It also gave a relative viability ([14]; first compound 0.03162 µM) of 0.146, a relative viability ([14]; first compound 0.1 µM) of 0.173 and a relative viability ([14]; first compound 0.3162 µM) of 0.237. The relative viability ([14]; first compound 1 µM) was 0.169, the relative viability ([15]; first compound 0.01 µM) was 0.206 and the relative viability ([15]; first compound 0.03162 µM) was 0.234. It also gave a relative viability ([15]; first compound 0.1 µM) of 0.201, a relative viability ([15]; first compound 0.3162 µM) of 0.206 and a relative viability ([15]; first compound 1 µM) of 0.215. The relative viability ([16]; first compound 0.01 µM) was 0.352, the relative viability ([16]; first compound 0.03162 µM) was 0.318 and the relative viability ([16]; first compound 0.1 µM) was 0.33. The relative viability ([16]; first compound 0.3162 µM) was 0.373, the relative viability ([16]; first compound 1 µM) was 0.36 and the relative viability ([17]; first compound 0.01 µM) was 0.667. The relative viability ([17]; first compound 0.03162 µM) was 0.58, the relative viability ([17]; first compound 0.1 µM) was 0.696 and the relative viability ([17]; first compound 0.3162 µM) was 0.586. The relative viability ([17]; first compound 1 µM) was 0.742, the relative viability ([18]; first compound 0.01 µM) was 0.712 and the relative viability ([18]; first compound 0.03162 µM) was 0.767. It also gave a relative viability ([18]; first compound 0.1 µM) of 0.736, a relative viability ([18]; first compound 0.3162 µM) of 0.661 and a relative viability ([18]; first compound 1 µM) of 0.741. For the same compound, the relative viability ([19]; first compound 0.01 µM) was 1.23, the relative viability ([19]; first compound 0.03162 µM) was 1.37 and the relative viability ([19]; first compound 0.1 µM) was 0.915. The relative viability ([19]; first compound 0.3162 µM) was 1.06, the relative viability ([19]; first compound 1 µM) was 1.14 and the relative viability ([20]; first compound 0.01 µM) was 0.931. The relative viability ([20]; first compound 0.03162 µM) was 0.899, the relative viability ([20]; first compound 0.1 µM) was 0.995 and the relative viability ([20]; first compound 0.3162 µM) was 0.962. The relative viability ([20]; first compound 1 µM) was 0.97, the relative viability ([21]; first compound 0.01 µM) was 0.199 and the relative viability ([21]; first compound 0.03162 µM) was 0.168. The relative viability ([21]; first compound 0.1 µM) was 0.216, the relative viability ([21]; first compound 0.3162 µM) was 0.187 and the relative viability ([21]; first compound 1 µM) was 0.179.
